Source: ChEMBL document CHEMBL3885861, “Open TG-GATES”

Species: Rattus norvegicus
Assay: Open TG-GATES - Regimen: Daily Repeat
Format: toxicity, organism-based, Sprague-Dawley
Parameters: regimen Daily Repeat, gender Male, age 6 weeks
Details: in vivo, po, 30 mg/kg, route gavage, dose level Low; for APTT / Bas / Eos / Fbg / Hb / Ht / Lym / MCH / MCHC / MCV / Mono / Neu / PT / Plat / RBC / Ret / WBC: tissue Blood; for KIDNEY_L / KIDNEY_R / KIDNEY_TOTAL: tissue Kidney; for LIVER: tissue Liver; for A/G / ALP / ALT / AST / BUN / CRE / Ca / Cl / DBIL / GLC / IP / K / LDH / Na / PL / RALB / TBIL / TC / TG / TP / gamma-GTP: tissue Plasma

ClC(Cl)(Cl)Cl [CARBON TETRACHLORIDE]
TERMINAL_BW (72 h, time 3 day): 222 g
APTT (72 h, time 3 day): 18.7 s
Bas (72 h, time 3 day): 0%
Eos (72 h, time 3 day): 1%
Fbg (72 h, time 3 day): 237.4 mg/dL
Hb (72 h, time 3 day): 13.4 g/dL
Ht (72 h, time 3 day): 39.2%
Lym (72 h, time 3 day): 77.4%
MCH (72 h, time 3 day): 22.1 pg
MCHC (72 h, time 3 day): 34.1%
MCV (72 h, time 3 day): 64.8 fL
Mono (72 h, time 3 day): 2.4%
Neu (72 h, time 3 day): 18.8%
PT (72 h, time 3 day): 11.6 s
Plat (72 h, time 3 day): 134.7 x10_4/uL
RBC (72 h, time 3 day): 606.8 x10_4/ul
Ret (72 h, time 3 day): 7.5%
WBC (72 h, time 3 day): 108.2 x10_2/uL
KIDNEY_L (72 h, time 3 day): 1 g
KIDNEY_R (72 h, time 3 day): 1 g
KIDNEY_TOTAL (72 h, time 3 day): 1.9 g
LIVER (72 h, time 3 day): 11.4 g
A/G (72 h, time 3 day): 1.4
ALP (72 h, time 3 day): 1206 IU/L
ALT (72 h, time 3 day): 44.4 IU/L
AST (72 h, time 3 day): 65.8 IU/L
BUN (72 h, time 3 day): 15.2 mg/dL
CRE (72 h, time 3 day): 0.4 mg/dL
Ca (72 h, time 3 day): 10.8 mg/dL
Cl (72 h, time 3 day): 103.4 meq/L
DBIL (72 h, time 3 day): 0.072 mg/dL
GLC (72 h, time 3 day): 197.8 mg/dL
IP (72 h, time 3 day): 7.3 mg/dL
K (72 h, time 3 day): 4 meq/L
LDH (72 h, time 3 day): 206.4 IU/L
Na (72 h, time 3 day): 140.6 meq/L
PL (72 h, time 3 day): 166 mg/dL
RALB (72 h, time 3 day): 3.2 g/dL
TBIL (72 h, time 3 day): 0.1 mg/dL
TC (72 h, time 3 day): 86.6 mg/dL
TG (72 h, time 3 day): 72.6 mg/dL
TP (72 h, time 3 day): 5.6 g/dL
gamma-GTP (72 h, time 3 day): 1.4 IU/L
TERMINAL_BW ([…], time 7 day): 246 g
TERMINAL_BW ([…], time 14 day): 300.3 g
TERMINAL_BW ([…], time 28 day): 401.4 g
APTT ([…], time 7 day): 19.6 s
Bas ([…], time 7 day): 0%
Eos ([…], time 7 day): 0.8%
Fbg ([…], time 7 day): 232.6 mg/dL
Hb ([…], time 7 day): 14.1 g/dL
Ht ([…], time 7 day): 41%
Lym ([…], time 7 day): 82%
MCH ([…], time 7 day): 21.2 pg
MCHC ([…], time 7 day): 34.5%
MCV ([…], time 7 day): 61.7 fL
Mono ([…], time 7 day): 2.6%
Neu ([…], time 7 day): 14%
PT ([…], time 7 day): 11.9 s
Plat ([…], time 7 day): 112.6 x10_4/uL
RBC ([…], time 7 day): 666.4 x10_4/ul
Ret ([…], time 7 day): 5.5%
WBC ([…], time 7 day): 96.8 x10_2/uL
APTT ([…], time 14 day): 20.3 s
Bas ([…], time 14 day): 0%
Eos ([…], time 14 day): 0.8%
Fbg ([…], time 14 day): 238.4 mg/dL
Hb ([…], time 14 day): 14.6 g/dL
Ht ([…], time 14 day): 43%
Lym ([…], time 14 day): 80%
MCH ([…], time 14 day): 20.1 pg
MCHC ([…], time 14 day): 33.9%
MCV ([…], time 14 day): 59.4 fL
Mono ([…], time 14 day): 2%
Neu ([…], time 14 day): 16.8%
PT ([…], time 14 day): 12 s
Plat ([…], time 14 day): 113.3 x10_4/uL
RBC ([…], time 14 day): 724.8 x10_4/ul
Ret ([…], time 14 day): 3.7%
WBC ([…], time 14 day): 110.3 x10_2/uL
APTT ([…], time 28 day): 21.2 s
Bas ([…], time 28 day): 0%
Eos ([…], time 28 day): 1%
Fbg ([…], time 28 day): 238 mg/dL
Hb ([…], time 28 day): 14.8 g/dL
Ht ([…], time 28 day): 43.3%
Lym ([…], time 28 day): 85.4%
MCH ([…], time 28 day): 19.1 pg
MCHC ([…], time 28 day): 34.2%
MCV ([…], time 28 day): 55.8 fL
Mono ([…], time 28 day): 2.8%
Neu ([…], time 28 day): 10.2%
PT ([…], time 28 day): 12.3 s
Plat ([…], time 28 day): 113.3 x10_4/uL
RBC ([…], time 28 day): 776.8 x10_4/ul
Ret ([…], time 28 day): 2.8%
WBC ([…], time 28 day): 104.8 x10_2/uL
KIDNEY_L ([…], time 7 day): 1 g
KIDNEY_R ([…], time 7 day): 1 g
KIDNEY_TOTAL ([…], time 7 day): 2.1 g
KIDNEY_L ([…], time 14 day): 1.2 g
KIDNEY_R ([…], time 14 day): 1.2 g
KIDNEY_TOTAL ([…], time 14 day): 2.3 g
KIDNEY_L ([…], time 28 day): 1.3 g
KIDNEY_R ([…], time 28 day): 1.3 g
KIDNEY_TOTAL ([…], time 28 day): 2.7 g
LIVER ([…], time 7 day): 12.4 g
LIVER ([…], time 14 day): 14.4 g
LIVER ([…], time 28 day): 19.2 g
A/G ([…], time 7 day): 1.6
ALP ([…], time 7 day): 1004.8 IU/L
ALT ([…], time 7 day): 39.2 IU/L
AST ([…], time 7 day): 70.8 IU/L
BUN ([…], time 7 day): 14.8 mg/dL
CRE ([…], time 7 day): 0.4 mg/dL
Ca ([…], time 7 day): 10.7 mg/dL
Cl ([…], time 7 day): 104.8 meq/L
DBIL ([…], time 7 day): 0.076 mg/dL
GLC ([…], time 7 day): 200.8 mg/dL
IP ([…], time 7 day): 7.7 mg/dL
K ([…], time 7 day): 4.1 meq/L
LDH ([…], time 7 day): 202 IU/L
Na ([…], time 7 day): 141.6 meq/L
PL ([…], time 7 day): 159.8 mg/dL
RALB ([…], time 7 day): 3.5 g/dL
TBIL ([…], time 7 day): 0.1 mg/dL
TC ([…], time 7 day): 75.2 mg/dL
TG ([…], time 7 day): 87.2 mg/dL
TP ([…], time 7 day): 5.6 g/dL
gamma-GTP ([…], time 7 day): 1.2 IU/L
A/G ([…], time 14 day): 1.5
ALP ([…], time 14 day): 898.4 IU/L
ALT ([…], time 14 day): 42.2 IU/L
AST ([…], time 14 day): 75 IU/L
BUN ([…], time 14 day): 15.4 mg/dL
CRE ([…], time 14 day): 0.4 mg/dL
Ca ([…], time 14 day): 10.5 mg/dL
Cl ([…], time 14 day): 103.4 meq/L
DBIL ([…], time 14 day): 0.056 mg/dL
GLC ([…], time 14 day): 201.4 mg/dL
IP ([…], time 14 day): 8 mg/dL
K ([…], time 14 day): 3.7 meq/L
LDH ([…], time 14 day): 207.4 IU/L
Na ([…], time 14 day): 141.6 meq/L
PL ([…], time 14 day): 138.6 mg/dL
RALB ([…], time 14 day): 3.6 g/dL
TBIL ([…], time 14 day): 0.1 mg/dL
TC ([…], time 14 day): 67.4 mg/dL
TG ([…], time 14 day): 55 mg/dL
TP ([…], time 14 day): 6 g/dL
gamma-GTP ([…], time 14 day): 1 IU/L
A/G ([…], time 28 day): 1.3
ALP ([…], time 28 day): 634.2 IU/L
ALT ([…], time 28 day): 40 IU/L
AST ([…], time 28 day): 75.2 IU/L
BUN ([…], time 28 day): 17.2 mg/dL
CRE ([…], time 28 day): 0.4 mg/dL
Ca ([…], time 28 day): 10.6 mg/dL
Cl ([…], time 28 day): 102.2 meq/L
DBIL ([…], time 28 day): 0.072 mg/dL
GLC ([…], time 28 day): 211.2 mg/dL
IP ([…], time 28 day): 6.6 mg/dL
K ([…], time 28 day): 3.9 meq/L
LDH ([…], time 28 day): 228 IU/L
Na ([…], time 28 day): 140.6 meq/L
PL ([…], time 28 day): 132 mg/dL
RALB ([…], time 28 day): 3.5 g/dL
TBIL ([…], time 28 day): 0.1 mg/dL
TC ([…], time 28 day): 59.6 mg/dL
TG ([…], time 28 day): 86.6 mg/dL
TP ([…], time 28 day): 6.2 g/dL
gamma-GTP ([…], time 28 day): 0.8 IU/L
